Results published in patent publication US11523610B2, “Regulating plant growth using a diapocarotenoid” (King Abdullah University of Science and Technology, priority 2018, dated 2022).
Entries after “also recorded” stand apart in the source; their conditions may differ.

Assays:
[1] = system: Arabidopsis root growth (Col-0 seedlings); experiment: Primary root length of Arabidopsis seedlings on treated half MS agar plates; type: in vivo
Method: β-cyclocitral, β-ionone and D′orenone (β-Apo-13-caroteneone) (FIG. 1A) were purchased from Buchem (Netherlands). Diapo1, Diapo2, Diapo3, Diapo4, Diapo5, and Diapo6 (FIG. 1B) were synthesized by Buchem (Netherlands). Diapo3 was also synthesized together with D6-anchorene and anchorene derivatives according to the protocol of SCHEME 2. Apocarotenoids and diapocarotenoids were dissolved in acetone to make stock solutions (10 mM). For the screening experiments, each chemical was diluted in half strength Murashige and Skoog (MS) media (with 0.5% sucrose+1% agar, 0.5 g/L MES, pH 5.7) to reach indicated concentrations of 25 μM and 5 μM. A stock solution of 10 mM GR24 (Chiralix, Netherlands) was also made by diluting GR24 in acetone. Stock solutions of D15 (100 mM), Norflurazone (5 mM), and CPTA (50 mM) were made in dimethyl sulfoxide (DMSO). For experiments, these compounds were diluted in concentrations of 125 μM D15, 500 nM Norflurazone, or 100 μM CPTA, respectively. 1-Naphthaleneacetic acid (NAA) and N-1-Naphthylphthalamic Acid (NPA) were purchased from Sigma-Aldrich (Germany) and dissolved in water to make 1 mM stock solutions. For NAA and NPA treatments, media containing 0.1 μM NAA and 1 μM NPA were used. Unless otherwise noted, all commercially available compounds were used as provided without further purification.
Sterilized Col-0 and mutants seeds were kept at 4° C. in darkness for 3 days to stimulate seed germination, and then sown on half strength MSO plates (with 0.5% sucrose +1% agar, 0.5g/L MES, pH 5.7) supplemented with the indicated chemicals as described below or in the Figures. Plates were vertically grown in PERCIVAL® growth chambers under long day (16 h light/8 h dark, 22° C., 60% relative humidity, light density: 4000 LUX) LED white light [HYPERIKON® 16 W LED Light Bulb A21, 16 W (100 W Equivalent), CRI92, 1620 Lumens, 4000K (Daylight Glow)] conditions. Light fluorescence rates were measured using a digital LUX meter ([…]® 5025).
(§1) ANRs were counted in seedlings vertically grown on half strength MS (with 0.5% sucrose +1% agar, 0.5 g/L MES, pH 5.7) media 8 days post-stratification (dps) using a dissection microscope. To investigate ANR formation after root apical meristems (RAM) excision (ANR-RE), RAM of seedlings were excised using sterile scalpels at 5 dps and then grown for another 3 days prior to counting the number of emerged ANRs. RAM of seedlings were excised at 8 dps and then grown for another 3 days prior to counting the number of emerged LRs. For determining the effect of anchorene on lateral roots, the number of emerged lateral roots were counted using a dissection microscope at 8 dps. For primary root length measurements, seedlings were measured using the publicly available ImageJ software (downloaded from rsbweb.nih.gov/ij/) after taking digital photographs. For adventitious root assay, the number of emerged adventitious roots per plant were counted after 5 days of treatment on plates with or without anchorene.
Six previously identified or predicted diapocarotenoids with chain lengths ranging from C9 to C15 (Diapo1-6) (FIG. 1B) and 3 apocarotenoids (FIG. 1C) were selected to identify new carotenoid-derived signals involved in root development). These compounds were selected because they are available and stable at ambient conditions. Diapo1 (C9) is the expected product formed upon cleavage of all-trans-β-apo-10′ carotenal. Diapo2 (C10) results from cleaving the C7, C8 and C15, C15′ double bonds in different carotenoids and is produced by cyanobacterial retinal-forming enzymes from Cm-apocarotenoids. Diapo3 (C10) is a structural isomer of Diapo2 and a predicted cleavage product that can be formed by cutting the C11, C12 and C11′, C12′ bonds in almost all plant carotenoids (FIGS. 1A, 1B and 17). Diapo4 (C12) results from cleaving the C7, C8 and C13′, C14′ bonds in many carotenoids, and is formed by the CCD1 from apo-10′-lycopenal.

[2] = system: Arabidopsis seedlings (anchor roots after RAM excision); experiment: ANR formation after root apical meristem excision (ANR-RE); type: in vivo
Description: as §1
ANR formation under carotenoid-deficient conditions was monitored to determine the role of endogenous carotenoids in ANR development. […] Therefore, ANR formation was monitored after RAM excision (ANR-RE) to stimulate ANR development. ANR measurements were used as an indicator of ANR formation capacity under different conditions. […] Norflurazon (NF) and 2-(4-chlorophenylthio)-triethylamine hydrochloride (CPTA), which block phytoene desaturation and lycopene cyclization, respectively were tested (FIG. 6A). The effect of D15, an inhibitor of CCDs was also investigated. Application of D15 to Arabidopsis seedlings is known to lead to an increase in carotenoid levels.

[3] = system: Arabidopsis seedlings (lateral roots); experiment: Lateral root emergence and lateral root capacity; type: in vivo
Description: as §1

pDR5::LUC seedlings = experiment: Luciferase assay in pDR5::LUC auxin marker line; type: in vivo, Arabidopsis; conditions: 1 μM NF, 20 μM anchorene
Method: Luciferase activity was assayed as previously described. Briefly, 1 mL of 5 mM Potassium Luciferin (Gold Biotechnology®) dissolved in water was directly applied to pDR5:LUC seedlings grown vertically on treated half strength MS plates. The luciferin solution was allowed to dry for 5-10 minutes in the dark, at room temperature. Seedlings were then imaged using a Lumazone™ CA automated Chemiluminescence system. Seven minute exposure times were used.
A pDR5::LUC line, which marks LR prebranch sites, was used to track ANR development. […] ANR primordia initiation was observed as early as 3 dps, in anchorene treated pDR5::LUC and 158 pDR5rev::GFP seedling (FIGS. 5A-C).

## C\C(C=O)=C/C=C/C=C(\C)C=O [anchorene, 12,12′-diapocarotene-12,12′-dial]
[1]; 25 μM, 7 dps
  inhibition of primary root growth: weak inhibition
[1]; 8 DAG Col-0 seedlings, different concentrations of anchorene (FIG. 3F)
  inhibition of primary root length: minor inhibition; also recorded: weak inhibitory effect
[2]; 20 μM anchorene simultaneous with 1 μM NF or 100 μM CPTA
  rescue of ANR-RE in carotenoid biosynthesis inhibitor treated seedlings: blocked inhibition of ANR-RE
[2]; 20 μM anchorene with 1 μM NPA
  rescue of ANR-RE in NPA treated seedlings: partially compensated
[2]; arf7arf19, 20 μM anchorene or after RAM excision
  ANR formation in arf7arf19 double mutant: did not form any ANR
[2]; psy mutant, 20 μM anchorene
  rescue of ANR-RE in psy mutant: restored wild-type ANR-RE
[3]; 5 and 10 μM anchorene, 8 dps
  lateral root emergence: no effect; also recorded: did not affect
[3]; LR No. after RAM excision, 20 μM anchorene
  LR capacity in untreated seedlings: inhibits LR capacity
[3]; LR No. after RAM excision, 20 μM anchorene and 100 μl D15
  LR formation (LR capacity) after D15 treatment: no significant effect
[3]; anchorene application (FIGS. 3E-F)
  LR length: did not affect
pDR5::LUC seedlings
  LUC signal in the collet: intensified the LUC signal
